System: hepatitis B therapeutic protein
Conditions: same risedronate content as Zn-risedronic acid (1/0.125) group
Experimental: Using the experimental procedure described in Example 4, mice were immunized with zinc risedronate adjuvant in combination with hepatitis B therapeutic protein by intramuscular injection, and serum antibody titers were detected. The specific method was as follows:
Experimental animals: Balb/C mice, 6-8 weeks, 5 mice/group, female.
Immunization protocol: antigen 1.2 μg/mouse, adjuvant and hepatitis B therapeutic protein were mixed at a volume ratio of 1:1 to form a vaccine, and then injected intramuscularly to mice, 150 μL per mouse, and 75 μL on each hind leg. The immunization was performed on the 0th, 2nd, 3rd, 4th, 5th and 6th week, 1.2 μg of antigen per mouse, blood samples were collected from eye socket after the 6th week, and ELISA was used to determine the levels of specific antibodies in serum.

SMILES: O=P(O)(O)C(O)(Cc1cccnc1)P(=O)(O)O [sodium risedronate, Risedronate sodium]
- difference in humoral immune response compared with aluminum adjuvant: no statistically significant difference
- humoral immune stimulation effect: a certain humoral immune stimulation effect

From US12419951B2, “Preparation of zinc risedronate micro/nano adjuvant and use thereof as vaccine adjuvant” (priority 2019, dated 2025)
